{
  "source": "paper PMC8918029",
  "about": "(Journal of medicinal chemistry, 2021)",
  "key": {"purified γ-secretase": {"target": "purified γ-secretase (Homo sapiens, UniProt P49768)", "experiment": "Inhibition constant", "format": "biochemical", "conditions": "double-reciprocal plots, varying C100Flag"}, "γ-secretase": {"target": "γ-secretase (Homo sapiens, UniProt P49768)", "experiment": "Cross-competition kinetic experiments between two inhibitors", "format": "biochemical", "conditions": "[38] = 0, 0.15, 0.30, 0.60 nM; C100 0.50 μM; parallel lines indicate cross-competition"}},
  "note": "“Also recorded” adds a separate entry of the source.",
  "data": [
    {"smiles": "CC[C@@H](C)[C@@H](NC(=O)[C@H](NC(=O)[C@H](NC(=O)C(C)(C)NC(=O)CNC(=O)[C@H](NC(=O)OC(C)(C)C)C(C)C)C(C)C)C(C)C)C(=O)NC(C)(C)C(=O)N[C@@H](C(=O)N[C@@H](C(=O)NC(C)(C)C(=O)NCCCCCCCCCCC(=O)N[C@H](C(=O)N[C@@H](Cc1ccccc1)[C@H](O)CN(Cc1ccccc1)C(=O)N[C@@H](CC(C)C)C(=O)N[C@H](C(N)=O)C(C)C)C(C)C)C(C)C)[C@H](C)O", "note": "[Compound 38, Boc-^DVal-Gly-Aib-^DVal-^DVal-^DIle-Aib-^DThr- ^DVal-Aib-NH(CH2)10CO-Val-Phe-ψ-Phe-Leu-Val-NH2]", "values": [
      {"measurement": "Inhibition profile (mode of inhibition)", "setting": "purified γ-secretase", "result": "noncompetitive; also recorded: non-competitive inhibition"},
      {"measurement": "Cross-competition with TSA 1 and HPI 2 for binding", "setting": "γ-secretase", "result": "could compete with both TSA 1 and HPI 2; also recorded: competes with both TSA 1 and HPI 2"}
    ]}
  ]
}
